Measured values published in the NIST ThermoML archive (doi:10.1021/je800046k).
Numbers after ± are expanded uncertainties.

Assay: xn = mol fraction of the nth substance listed
Settings: for surface tension liquid-gas: Pendant drop shape; for mass density: 101 kPa, Liquid

CC(=O)OCC(C)C [2-methylpropyl ethanoate] + Cc1ccc(C)c(C)c1
Settings | mass density [kg/m3] | surface tension liquid-gas [mN/m]
298.15 K, x1 = 0.0494 | 871.36 ± 0.56 | 28.85 ± 0.33
298.15 K, x1 = 0.0992 | 871.02 ± 0.58 | 28.38 ± 0.32
298.15 K, x1 = 0.1493 | 870.68 ± 0.61 | 27.89 ± 0.32
298.15 K, x1 = 0.2002 | 870.35 ± 0.63 | 27.4 ± 0.32
298.15 K, x1 = 0.2498 | 870.03 ± 0.66 | 26.98 ± 0.32
298.15 K, x1 = 0.2989 | 869.71 ± 0.68 | 26.61 ± 0.32
298.15 K, x1 = 0.3495 | 869.39 ± 0.71 | 26.25 ± 0.32
298.15 K, x1 = 0.3997 | 869.08 ± 0.74 | 25.92 ± 0.32
298.15 K, x1 = 0.4505 | 868.77 ± 0.77 | 25.59 ± 0.32
298.15 K, x1 = 0.4991 | 868.48 ± 0.81 | 25.3 ± 0.33
298.15 K, x1 = 0.5504 | 868.19 ± 0.84 | 25.03 ± 0.33
298.15 K, x1 = 0.6 | 867.92 ± 0.88 | 24.78 ± 0.33
298.15 K, x1 = 0.6496 | 867.65 ± 0.91 | 24.54 ± 0.33
298.15 K, x1 = 0.7006 | 867.37 ± 0.95 | 24.32 ± 0.33
298.15 K, x1 = 0.75 | 867.13 ± 0.99 | 24.13 ± 0.33
298.15 K, x1 = 0.8002 | 866.88 ± 1 | 23.91 ± 0.34
298.15 K, x1 = 0.8499 | 866.67 ± 1.1 | 23.74 ± 0.34
298.15 K, x1 = 0.9006 | 866.45 ± 1.1 | 23.55 ± 0.34
298.15 K, x1 = 0.9477 | 866.27 ± 1.2 | 23.36 ± 0.34
298.15 K, x1 = 1 | 866.06 ± 1.2 | 23.15 ± 0.35
308.15 K, x1 = 0.0495 | 863.22 ± 0.58 | 27.75 ± 0.32
308.15 K, x1 = 0.0992 | 862.76 ± 0.6 | 27.26 ± 0.31
308.15 K, x1 = 0.149 | 862.3 ± 0.62 | 26.78 ± 0.31
308.15 K, x1 = 0.1998 | 861.84 ± 0.64 | 26.31 ± 0.31
308.15 K, x1 = 0.25 | 861.39 ± 0.67 | 25.89 ± 0.31
308.15 K, x1 = 0.2995 | 860.95 ± 0.7 | 25.52 ± 0.31
308.15 K, x1 = 0.3497 | 860.51 ± 0.72 | 25.17 ± 0.31
308.15 K, x1 = 0.4004 | 860.07 ± 0.75 | 24.83 ± 0.31
308.15 K, x1 = 0.4501 | 859.64 ± 0.78 | 24.52 ± 0.31
308.15 K, x1 = 0.4995 | 859.23 ± 0.82 | 24.21 ± 0.31
308.15 K, x1 = 0.5505 | 858.81 ± 0.85 | 23.94 ± 0.32
308.15 K, x1 = 0.5994 | 858.42 ± 0.88 | 23.69 ± 0.32
308.15 K, x1 = 0.65 | 858.02 ± 0.92 | 23.48 ± 0.32
308.15 K, x1 = 0.6987 | 857.63 ± 0.96 | 23.25 ± 0.32
308.15 K, x1 = 0.7505 | 857.25 ± 1 | 23.04 ± 0.32
308.15 K, x1 = 0.7986 | 856.89 ± 1 | 22.82 ± 0.32
308.15 K, x1 = 0.8497 | 856.54 ± 1.1 | 22.67 ± 0.33
308.15 K, x1 = 0.8999 | 856.19 ± 1.1 | 22.48 ± 0.33
308.15 K, x1 = 0.9491 | 855.87 ± 1.2 | 22.32 ± 0.33
308.15 K, x1 = 1 | 855.51 ± 1.2 | 22.16 ± 0.33
313.15 K, x1 = 0.0506 | 859.06 ± 0.58 | 27.18 ± 0.31
313.15 K, x1 = 0.1002 | 858.55 ± 0.6 | 26.67 ± 0.31
313.15 K, x1 = 0.1499 | 858.03 ± 0.63 | 26.15 ± 0.31
313.15 K, x1 = 0.2001 | 857.52 ± 0.65 | 25.7 ± 0.31
313.15 K, x1 = 0.2505 | 857 ± 0.68 | 25.28 ± 0.31
313.15 K, x1 = 0.3001 | 856.51 ± 0.7 | 24.91 ± 0.31
313.15 K, x1 = 0.3502 | 856.01 ± 0.73 | 24.59 ± 0.31
313.15 K, x1 = 0.3995 | 855.53 ± 0.76 | 24.26 ± 0.31
313.15 K, x1 = 0.4501 | 855.03 ± 0.79 | 23.95 ± 0.31
313.15 K, x1 = 0.5001 | 854.56 ± 0.82 | 23.62 ± 0.31
313.15 K, x1 = 0.5503 | 854.08 ± 0.86 | 23.36 ± 0.31
313.15 K, x1 = 0.6007 | 853.61 ± 0.89 | 23.08 ± 0.31
313.15 K, x1 = 0.6492 | 853.16 ± 0.93 | 22.9 ± 0.31
313.15 K, x1 = 0.6997 | 852.71 ± 0.96 | 22.65 ± 0.31
313.15 K, x1 = 0.75 | 852.27 ± 1 | 22.46 ± 0.32
313.15 K, x1 = 0.801 | 851.82 ± 1 | 22.2 ± 0.32
313.15 K, x1 = 0.848 | 851.43 ± 1.1 | 22.09 ± 0.32
313.15 K, x1 = 0.8998 | 851.01 ± 1.1 | 21.89 ± 0.32
313.15 K, x1 = 0.9498 | 850.6 ± 1.2 | 21.77 ± 0.32
313.15 K, x1 = 1 | 850.16 ± 1.2 | 21.64 ± 0.33
